Columns and labels:
[1] = test system: contact-activated coagulation; test: APTT test in platelet free plasma of a healthy donor (kaolin-cephalin activation); format: biochemical, human; settings: for concentration at which the APTT increases nearly four-fold / concentration leading to 2.5-fold increase of APTT: normal plasma
Procedure: The assessment of activity of the polypeptide comprising the sequence of an infestin-4 mutant MutB by its inhibition of the contact-activated coagulation shall be considered further with a reference to FIG. 1. Native infestin-4 and mutants MutB and Mut15 were added into 3 separate samples of platelet free plasma (PFP) of a healthy donor, with subsequent measuring time of contact-activated clotting in the APTT test.
Blood plasma from healthy donors was processed according to standard protocols of blood collection for coagulation assays (Collection, Transport, and Processing of Blood Specimens for Testing Plasma-Based Coagulation Assays and Molecular Hemostasis Assays; Approved Guideline Fifth Edition by Clinical and Laboratory Standards Institute (CLSI) H21-A5 Vol. 28 No. 5). 0.38% sodium citrate was added into blood to block the calcium ions.
The APTT test was administered using the reagent kits “Coagulo-test” (Scientific-production association Renam, Moscow, Russia) and different concentrations of the following contact activation inhibitors: native infestin-4, MutB, and Mut15. To do that, 50 microliters of blood plasma from a healthy donor were mixed with 5.6 microliters of a 10× solution of different inhibitor concentrations and incubated for 15 minutes at 37° C. Then, according to the “Coagulo-test” manual, 25 microliters of the mixture were transferred into the cuvette of the coagulometer Helena-C2, with addition of 25 microliters of kaolin-cephalin mixture activating fXII in blood plasma. After incubation at 37° C. for 3 minutes, 25 microliters of the calcium chloride solution in the initial concentration of 25 mM was added, and the time of fibrin clot formation in the coagulometer cuvette was determined photometrically.
APTT dependences on concentrations of native infestin-4, MutB and Mut15 obtained in the same way as in Example 1, are shown on FIG. 1.

contact activation = test: Thrombodynamics analyzer T-2, artifact clots far from the TF activator in normal frozen-thawed PFP; format: biochemical, human; settings: MutB 20 μM, CTI 15 μM; for cuvette area occupied by artifact clots far from the activator: 30 minutes after activation, whole cuvette area without inhibitor; for suppression of contact activation, formation of artifact clots: 30 minutes after assay start, n=4
Procedure: The assay included the following steps: thawing of a frozen PFP sample, adding to it of a contact activation inhibitor and incubating the resulting mixture, sample recalcification and its placing into the measuring cuvette channel, bringing the sample into contact with the TF immobilized at the end of a special insert-activator, and detecting the appearance and growth of fibrin clots in the consequent photography mode. The frozen PFP sample was obtained preliminarily through collection of blood into sodium citrate-containing tubes from several (at least five) healthy donors and subsequent 2 stages of centrifugation and freezing of the prepared plasma at −80° C. During the assay arrangement, the fibrin clot was growing from the insert-activator; appearance of additional clots in the cuvette area far from the activator was also possible, as shown on FIG. 2. Clots in the cuvette area far from the activator can be due to the hypercoagulation state of the sample or to the artifacts of sample contact activation from the cuvette walls (artifact clots): the latter must be suppressed for the said test to allow distinguishing between the normal and hypercoagulation states of the coagulation system. To do that, before activating the sample through bringing it into contact with TF, an efficient quantity of the contact activation inhibitor was added into the sample: in this case, we used the polypeptide comprising the sequence of an infestin-4 mutant MutB. To compare the efficiency of the claimed polypeptide comprising the sequence of an infestin-4 mutant MutB with the contact activation inhibitor CTI known in the field, the said inhibitors were added into 2 separate samples of normal frozen PFP plasma. We used such concentrations of the inhibitors at which the APTT increases nearly four-fold: 20 μM in case of MutB and 15 μM in case of CTI. […] For each sample, 4 repeated measurements were performed. 30 minutes after the assay start, images of the fibrin clot in measuring cuvettes-4 cuvettes for each sample-were obtained: they are shown on FIG. 3.
The cuvette area occupied by artifact clots (in % from the total cuvette area; n=4) was plotted for 3 samples of normal frozen plasma at separate time points (FIG. 4, averaged values at each time point). Without adding the contact activation inhibitor, artifact clots appear in the cuvette area far from the activator nearly 15 minutes after activation and occupy the whole cuvette area after 30 minutes. However, after addition of CTI or MutB, such clots occupy not more than 15% of the cuvette area 30 minutes after activation. […]

Molecule	APTT ([1]; 10 μM inhibitor in PFP, 45 sec without inhibitor) [s]	activity in blood plasma in comparison to Mut15 ([1]; APTT dose-dependence)	activity in blood plasma in comparison with Mut15 and native infestin-4 ([1]; APTT dose-dependence, FIG. 1)	concentration at which the APTT increases nearly four-fold [1] [µM]	concentration leading to 2.5-fold increase of APTT [1] [µM]	cuvette area occupied by artifact clots far from the activator (contact activation)	suppression of contact activation, formation of artifact clots (contact activation)
MutB: polypeptide comprising the sequence of infestin-4 mutant MutB (SEQ ID NO: 1), inhibition loop TRNFVA; high-selectivity fXIIa inhibitor (EVRNPCACTRNFVAVCGSDGKTYGNPCMLNCAAQTKVPGLKLVHEGRCQRSNVEQF; Infestin-4 mutant MutB)	120	nearly twofold	increased activity	20	10	not more than 15%	almost complete suppression
corn trypsin inhibitor (other, UniProt P01088 29-138, looked up, Isolated from corn; also called CTI) SAGTSCVPGWAIPHNPLPSCRWYVTSRTCGIGPRLPWPELKRRCCRELADIPAYCRCTALSILMDGAIPPGPDAQLEGRLEDLPGCPREVQRGFAATLVTEAECNLATIS				15	5	not more than 15%	almost complete suppression

— patent US10006080B2, “High-selectivity contact activation inhibitor based on infestin-4” (OBSCHESTVO S OGRANICHENNOY OTVETSTVENNOSTYU …, priority 2013, dated 2018)
